Format in all cases: cell-based
The target in one assay is T1, IKZF1 in L363 cells (Homo sapiens, UniProt Q13422+Q96SW2).
T1 construct: endogenous in cells; host or cells: L363
The assay can be described thus: Degradation of IKZF1 in L363 cells (Western blot). Conditions: 1000 nM, 16 hours. The procedure:
(§1) The 24-well cell culture plate was inoculated with 0.95 mL L363 cells (Nanjing Co-bioer) per well with a cell density of 6×10^5 cells/well. The cell plate was placed in a 5% carbon dioxide incubator and cultured at 37° C. for 8 hours, then 50 μL of compound solution was added. The final concentration of the compound was 1000 nM. After continuing to culture for 16 hours, the cells were collected into a 1.5 mL centrifuge tube and centrifuged at 3000 rpm and 4° C. for 5 minutes. Cell precipitation was cleaned twice with 1×DPBS, resuspended cells were lysed with 100 μL lysate (cell lysate was Western and IP cell lysate (Beyotime), supplemented with 1 mM mixture of phenylmethylsulfonyl fluoride and protease inhibitor (Beyotime)), left on ice for 30 minutes, then centrifuged at 14000 g at 4° C. for 10 minutes, and the supernatant was taken to detect IKZF1 and IKZF3 protein level by Western blot.
(§2) The total protein concentration in the supernatant of cell lysis was determined by BCA protein quantitative kit (Tiangen). According to the concentration of total protein detected by BCA, the supernatant was adjusted to 0.2 μg/μL with PBS and 5× SDS-PAGE protein loading buffer (Beyotime), bathed in water at 100° C. for 10 minutes, then placed in ice bath for 5 minutes, centrifuged at 14000 g and 4° C. for 5 minutes, and then collected as WB loading sample. Prefabricated glue (KeyGEN) was used for protein electrophoresis with a loading amount of 10 μL (total protein 2 μg). After Tris-MOPS-SDS electrophoresis solution (Adamas), 120V constant pressure electrophoresis was performed. After electrophoresis, the protein on the adhesive strip was transferred to PVDF membrane with a constant current of […] for 50 minutes. After the membrane was transferred, the membrane was incubated in 5% bovine serum albumin solution for 2 hours at room temperature. After blocking, PVDF membranes were incubated with IKZF1 primary antibody (CST) and IKZF3 primary antibody (Abcam) overnight at 4°, the membranes were washed with TBST buffer (2.4 g Tris, 8.8 g NaCl, 1.5 mL Tween 20, pH adjusted to 7.4, constant volume to IL) for 30 minutes, incubated with secondary antibody (Abcam) for 2 hours at room temperature, finally incubated with Clarity Western ECL Substrate(BIO-RAD) for 5 minutes for luminescence development, chemiluminescence imaging system (Clinx, chemiScope 6200 Touch) for development and protein mapping photography. The protein map was analyzed by Clinx chemiluminescence analysis software for grayscale values. Using the formula: grayscale correction value=(target protein grayscale value/corresponding internal reference grayscale value)×10^3, the grayscale correction value of each sample was calculated. The degradation rate was calculated by comparing with the grayscale correction value of the control group.
Background: A western blot detects proteins with antibodies after separation by electrophoresis.

The target in assay [1] is T2, IRAK4 protein in THP-1 cells (Homo sapiens, UniProt Q9NWZ3).
T2 construct: endogenous in cells; host or cells: THP-1
T2 sequence (Q9NWZ3 1-460): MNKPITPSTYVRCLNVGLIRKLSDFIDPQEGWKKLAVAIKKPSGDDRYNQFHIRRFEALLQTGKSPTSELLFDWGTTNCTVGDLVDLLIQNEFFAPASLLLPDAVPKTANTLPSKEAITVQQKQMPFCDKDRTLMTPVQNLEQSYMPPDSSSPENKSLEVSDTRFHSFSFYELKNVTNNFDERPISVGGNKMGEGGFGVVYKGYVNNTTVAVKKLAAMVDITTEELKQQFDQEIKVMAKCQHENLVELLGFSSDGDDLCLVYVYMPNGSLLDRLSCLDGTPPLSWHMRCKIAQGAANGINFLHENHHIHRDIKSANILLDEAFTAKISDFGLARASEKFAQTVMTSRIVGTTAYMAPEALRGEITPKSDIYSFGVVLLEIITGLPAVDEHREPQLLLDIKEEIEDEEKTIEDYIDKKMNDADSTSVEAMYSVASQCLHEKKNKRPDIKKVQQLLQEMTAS
Put plainly: Degradation of IRAK4 in THP-1 cells (Western blot). Conditions: 24 hours, compound 1-3000 nM. In short, it runs like this:
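THP-1 cells (5×10^5/well) treated 24 h with compound at 1–3000 nM final. IRAK4 in lysates quantified by Western blot, normalized to internal reference and compared with control to give degradation rate; DC50 and Dmax from nonlinear fit of log concentration.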

A further assay concerns the target T3, IKZF3 in L363 cells (Homo sapiens, UniProt Q96SW2+Q9UKT9).
T3 construct: endogenous in cells; host or cells: L363
The assay can be described thus: Degradation of IKZF3 in L363 cells (Western blot). Conditions: 1000 nM, 16 hours. The procedure:
as §1, §2

T1 sequence (Q13422 whole entry): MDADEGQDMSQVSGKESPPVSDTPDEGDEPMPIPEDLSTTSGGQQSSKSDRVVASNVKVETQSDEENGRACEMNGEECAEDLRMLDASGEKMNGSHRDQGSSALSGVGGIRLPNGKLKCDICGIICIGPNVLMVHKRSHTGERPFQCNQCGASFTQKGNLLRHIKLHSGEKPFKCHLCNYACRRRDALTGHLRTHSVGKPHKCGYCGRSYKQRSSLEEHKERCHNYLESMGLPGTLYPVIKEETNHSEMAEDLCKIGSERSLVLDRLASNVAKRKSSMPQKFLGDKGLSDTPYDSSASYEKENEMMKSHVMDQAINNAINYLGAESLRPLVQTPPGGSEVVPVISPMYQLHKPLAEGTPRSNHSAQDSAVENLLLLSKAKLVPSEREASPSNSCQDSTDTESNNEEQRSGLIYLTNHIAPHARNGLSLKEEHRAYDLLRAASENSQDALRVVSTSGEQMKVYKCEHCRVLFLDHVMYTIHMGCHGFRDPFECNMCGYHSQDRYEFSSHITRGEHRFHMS
T1 sequence (Q96SW2 whole entry): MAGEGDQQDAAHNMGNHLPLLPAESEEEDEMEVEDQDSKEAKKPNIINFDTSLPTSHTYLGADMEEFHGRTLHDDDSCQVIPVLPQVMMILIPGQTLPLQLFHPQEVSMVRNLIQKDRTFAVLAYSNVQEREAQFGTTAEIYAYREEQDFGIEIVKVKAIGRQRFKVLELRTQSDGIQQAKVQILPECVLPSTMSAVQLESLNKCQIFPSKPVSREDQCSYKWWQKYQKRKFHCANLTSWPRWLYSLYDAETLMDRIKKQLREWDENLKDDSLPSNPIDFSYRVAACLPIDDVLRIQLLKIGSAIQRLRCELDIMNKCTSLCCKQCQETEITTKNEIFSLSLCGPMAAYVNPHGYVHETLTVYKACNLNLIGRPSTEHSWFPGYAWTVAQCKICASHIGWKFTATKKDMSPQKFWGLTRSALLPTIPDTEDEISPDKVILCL
T1 sequence (Q16531 whole entry partner): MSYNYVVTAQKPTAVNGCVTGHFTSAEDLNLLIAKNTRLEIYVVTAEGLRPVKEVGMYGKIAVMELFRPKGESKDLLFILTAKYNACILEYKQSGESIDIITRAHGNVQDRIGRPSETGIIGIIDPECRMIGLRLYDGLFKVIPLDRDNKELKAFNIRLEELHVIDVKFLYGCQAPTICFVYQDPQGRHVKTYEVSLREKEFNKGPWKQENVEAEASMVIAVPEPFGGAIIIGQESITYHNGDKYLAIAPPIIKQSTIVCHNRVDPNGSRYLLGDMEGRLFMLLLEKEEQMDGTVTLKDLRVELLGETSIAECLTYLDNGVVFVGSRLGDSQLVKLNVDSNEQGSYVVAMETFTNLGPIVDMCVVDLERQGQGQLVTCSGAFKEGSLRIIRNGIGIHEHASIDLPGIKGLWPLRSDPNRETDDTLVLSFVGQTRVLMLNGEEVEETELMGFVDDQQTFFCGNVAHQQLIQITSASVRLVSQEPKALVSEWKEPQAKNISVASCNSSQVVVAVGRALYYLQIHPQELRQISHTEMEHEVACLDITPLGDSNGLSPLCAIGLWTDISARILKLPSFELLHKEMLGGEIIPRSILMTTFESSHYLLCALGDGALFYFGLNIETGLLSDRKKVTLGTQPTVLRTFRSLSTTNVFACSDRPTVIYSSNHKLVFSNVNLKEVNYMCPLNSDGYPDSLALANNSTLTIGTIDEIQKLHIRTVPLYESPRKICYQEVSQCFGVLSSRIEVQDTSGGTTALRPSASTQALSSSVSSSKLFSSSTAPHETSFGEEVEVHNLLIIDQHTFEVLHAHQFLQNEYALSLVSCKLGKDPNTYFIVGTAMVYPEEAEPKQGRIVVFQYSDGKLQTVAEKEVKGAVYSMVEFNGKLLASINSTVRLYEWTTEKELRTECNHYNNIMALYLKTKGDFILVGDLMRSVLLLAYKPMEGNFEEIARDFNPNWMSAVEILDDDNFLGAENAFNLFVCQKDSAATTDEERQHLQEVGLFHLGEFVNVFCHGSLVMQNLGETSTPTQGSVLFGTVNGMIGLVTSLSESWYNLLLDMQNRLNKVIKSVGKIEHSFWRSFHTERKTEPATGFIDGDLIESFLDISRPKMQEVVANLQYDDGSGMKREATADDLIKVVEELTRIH
T3 sequence (Q9UKT9 whole entry): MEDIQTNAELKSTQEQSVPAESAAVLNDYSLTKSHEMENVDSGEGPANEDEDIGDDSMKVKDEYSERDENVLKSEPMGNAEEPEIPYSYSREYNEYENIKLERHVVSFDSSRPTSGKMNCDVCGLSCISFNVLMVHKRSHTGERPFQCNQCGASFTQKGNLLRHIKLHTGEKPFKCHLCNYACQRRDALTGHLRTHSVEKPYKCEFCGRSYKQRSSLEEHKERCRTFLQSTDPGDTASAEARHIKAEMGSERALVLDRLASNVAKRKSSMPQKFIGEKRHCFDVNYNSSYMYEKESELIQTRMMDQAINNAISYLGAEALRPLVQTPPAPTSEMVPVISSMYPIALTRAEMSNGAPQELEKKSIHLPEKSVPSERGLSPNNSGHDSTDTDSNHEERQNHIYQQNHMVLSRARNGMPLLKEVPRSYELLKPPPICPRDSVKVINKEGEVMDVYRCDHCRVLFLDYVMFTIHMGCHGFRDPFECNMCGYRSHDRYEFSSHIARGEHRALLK
T3 sequence (Q96SW2 whole entry): as the sequence (Q96SW2 whole entry) above
T3 sequence (Q16531 whole entry partner): as the sequence (Q16531 whole entry partner) above

One may read the DC50 as the concentration at which degradation of the target reaches its halfway point. A low value points to degradation at low concentration. Regarding `COc1cc2nn(C3CCN(CC4CCN(CCOc5ccc6c(c5)C(=O)N(C5CCC(=O)NC5=O)C6=O)CC4)CC3)cc2cc1NC(=O)c1cccc(C(F)(F)F)n1` (centres unmarked) [Control group 2, N-(2-(1-((1-(2-((2-(2,6-dioxopiperidin-3-yl)-1,3-dioxoisoindol-5-yl)oxy)ethyl)piperidin-4-yl)methyl)piperidin-4-yl)-6-methoxy-2H-indazol-5-yl)-6-(trifluoromethyl) pyridinecarboxamide, reference compound], at IKZF1 in L363 cells, the IKZF1 degradation rate was 47.5 ± 9.7%. Besides, in assay [1], half-maximal degradation (DC50) was put at 40.6 nM. The compound further had an IKZF3 degradation rate at IKZF3 in L363 cells of 71.2 ± 5.7%.
In general, Dmax refers to the greatest extent of degradation seen. As to `CN(CC1CCN(c2cccc3c2C(=O)N(C2CCC(=O)NC2=O)C3=O)CC1)C[C@H]1CC[C@H](n2cc3cc(NC(=O)c4cccc(C(F)(F)F)n4)c(C(C)(C)O)cc3n2)CC1` (some centres unmarked) [Control group 3, N-(2-((1r,4r)-4-((((1-(2-(2,6-dioxopiperidin-3-yl)-1,3-dioxoisoindolin-4-yl)piperidin-4-yl)methyl) (methyl)amino)methyl)cyclohexyl)-6-(2-hydroxyprop-2-yl)-2H-indazol-5-yl)-6-(trifluoromethyl) pyridinecarboxamide, reference compound], the IKZF1 degradation rate on IKZF1 in L363 cells is 97.2 ± 2.6%. Further, in assay [1], the DC50 was found to be 19.8 nM and the Dmax was determined as 75.3%. For the same compound, the IKZF3 degradation rate on IKZF3 in L363 cells is on record as 92.8 ± 5.0%.
Taken in the same sequence, the figures for `CC(C)(O)c1cc2nn(C3CCN(CC4CCC5(CC4)CCN(C(=O)c4ccc(Cl)c(N6CCC(=O)NC6=O)c4)CC5)CC3)cc2cc1NC(=O)c1cccc(C(F)(F)F)n1` [Example 31, N-(2-(1-((3-(4-chloro-3-(2,4-dioxotetrahydro-pyrimidin-1 (2H)-yl)benzoyl)-3-azaspiro [5.5]undec-9-yl)methyl)piperdin-4-yl)-6-(2-hydroxyprop-2-yl)-2H-indazol-5-yl)-6-(trifluoro-methyl) pyridinecarbox-amide] were 8.4 ± 13.9%, 2.6 nM, 97.1% and 17.8 ± 3.6%.

These data come from patent publication US20230234936A1, “COMPOUND FOR TARGETING AND DEGRADING PROTEIN, AND PREPARATION METHOD THEREFOR AND USE THEREOF” (SHANGHAI LEADINGTAC PHARMACEUTICAL CO., LTD., priority 2020, published 2023).
